From US20230022157A1 (Achillion Pharmaceuticals, Inc., priority 2018, published 2023)

molecular target: T1, Human Factor D (Homo sapiens, UniProt P00746); experiment: Human Factor D Assay; format: biochemical; conditions: Human Factor D 80 nM, substrate Z-L-Lys-SBzl, assay of Example 3; read-out: IC50 (Stars)
T1 construct: purified from human serum; purchased Complement Technology, Inc; host or cells: human serum (natural protein, not recombinant)
In short: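 Serum-purified human factor D (80 nM final) preincubated 5 min at room temperature with test compound in 50 mM Tris, 1M NaCl, pH 7.5. Z-L-Lys-SBzl substrate and DTNB then added, each at 100 μM final. IC50 from nonlinear regression of reaction rate against compound concentration.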

T1 sequence (P00746 26-253): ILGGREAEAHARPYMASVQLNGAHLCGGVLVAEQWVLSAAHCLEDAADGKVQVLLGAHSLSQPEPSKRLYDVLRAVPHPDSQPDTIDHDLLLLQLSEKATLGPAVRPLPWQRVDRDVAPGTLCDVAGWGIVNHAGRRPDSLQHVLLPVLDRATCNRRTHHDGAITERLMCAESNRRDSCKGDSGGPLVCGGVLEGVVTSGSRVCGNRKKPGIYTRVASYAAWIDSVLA

IC50, < 1000 nM:
CC(=O)c1nn(CC(=O)N2[C@H](C(=O)Nc3cccc(C(F)(F)F)c3F)C[C@@]3(C)C[C@@H]23)c2ccc(-c3cnc4cc(C)nn4c3)cc12 [Compound 25, (1R,3S,5R)-2-(2-(3-Acetyl-5-(2-methylpyrazolol[1,5-A]pyrimidin-6-yl)-1H-indazol-1-yl)acetyl)-N-(2-fluoro-3-(trifluoromethyl)phenyl)-5-methyl-2-azabicyclo[3.1.0]hexane-3-carboxamide]
CC(=O)c1nn(CC(=O)N2[C@H](C(=O)NCCc3cccnc3)C[C@@]3(C)C[C@@H]23)c2c(C)cc(-c3cnc(C)nc3)cc12 [Compound 7, (1R,3S,5R)-2-(2-(3-Acetyl-7-methyl-5-(2-methylpyrimidin-5-yl)-1H-indazol-1-yl)acetyl)-5-methyl-N-(2-(pyridin-3-yl)ethyl)-2-azabicyclo[3.1.0]hexane-3-carboxamide]

same assay, conditions: Human Factor D 80 nM, substrate Z-L-Lys-SBzl; Table 2; read-out: IC50 (Stars)

IC50, < 1000 nM:
CC(=O)c1nn(CC(=O)N2[C@H]3CC[C@H](C3)[C@H]2C(=O)Nc2nc(C(F)(F)F)ccc2C)c2c(C)cc(-c3cnc(C(C)O)nc3)cc12 (stereo partly drawn) [Compound 171, (1S,3S,4R)-2-(2-(3-acetyl-5-(2-(1-hydroxyethyl)pyrimidin-5-yl)-7-methyl-1H-indazol-1-yl)acetyl)-N-(3-methyl-6-(trifluoromethyl)pyridin-2-yl)-2-azabicyclo[2.2.1]heptane-3-carboxamide]
CC(=O)c1nn(CC(=O)N2[C@H](C(=O)Nc3nc(Br)ccc3C)C[C@@]3(C)C[C@@H]23)c2ccc(-c3cncc(S(C)(=O)=O)c3)cc12 [Compound 121, (1R,3S,5R)-2-(2-(3-Acetyl-5-(5-(methylsulfonyl)pyridin-3-yl)-1H-indazol-1-yl)acetyl)-N-(6-bromo-3-methylpyridin-2-yl)-5-methyl-2-azabicyclo[3.1.0]hexane-3-carboxamide]
CC(=O)c1nn(CC(=O)N2[C@H](C(=O)Nc3cc(C)cc(Br)n3)C[C@@]3(C)C[C@@H]23)c2c(C)cc(-c3cnc(CO)nc3)cc12 [Compound 93, (1R,3S,5R)-2-(2-(3-acetyl-5-(2-(hydroxymethyl)pyrimidin-5-yl)-7-methyl-1H-indazol-1-yl)acetyl)-N-(6-bromo-4-methylpyridin-2-yl)-5-methyl-2-azabicyclo[3.1.0]hexane-3-carboxamide]
CC(=O)c1nn(CC(=O)N2[C@H](C(=O)Nc3nc(C(C)(F)F)ccc3C)C[C@@]3(C)C[C@@H]23)c2c(C)cc(-c3cnc(C)nc3)cc12 [Compound 130, (1R,3S,5R)-2-(2-(3-Acetyl-7-methyl-5-(2-methylpyrimidin-5-yl)-1H-indazol-1-yl)acetyl)-N-(6-(1,1-difluoroethyl)-3-methylpyridin-2-yl)-5-methyl-2-azabicyclo[3.1.0]hexane-3-carboxamide]
CC(=O)c1nn(CC(=O)N2[C@H](C(=O)Nc3nc(Br)c(F)cc3C)C[C@@]3(C)C[C@@H]23)c2c(C)cc(-c3cnc(CO)nc3)cc12 [Compound 49, (1R,3S,5R)-2-(2-(3-acetyl-5-(2-(hydroxymethyl)pyrimidin-5-yl)-7-methyl-1H-indazol-1-yl)acetyl)-N-(6-bromo-5-fluoro-3-methylpyridin-2-yl)-5-methyl-2-azabicyclo[3.1.0]hexane-3-carboxamide]
Cc1ncc(-c2cc(C)c3c(c2)c(C(C)O)cn3CC(=O)N2[C@H](C(=O)Nc3nc(Br)ccc3C)C[C@@]3(C)C[C@@H]23)cn1 (stereo partly drawn) [Compound 191, (1R,3S,5R)—N-(6-bromo-3-methylpyridin-2-yl)-2-(2-(3-(1-hydroxyethyl)-7-methyl-5-(2-methylpyrimidin-5-yl)-1H-indol-1-yl)acetyl)-5-methyl-2-azabicyclo[3.1.0]hexane-3-carboxamide]
CC(=O)c1nn(CC(=O)N2[C@H](C(=O)N[C@H]3CCCCC3(F)F)C[C@@]3(C)C[C@@H]23)c2c(C)cc(-c3cnc(C)nc3)cc12 [Compound 149, (1R,3S,5R)-2-{2-[3-acetyl-7-methyl-5-(2-methylpyrimidin-5-yl)indazol-1-yl]acetyl}-N-[(1S)-2,2-difluorocyclohexyl]-5-methyl-2-azabicyclo[3.1.0]hexane-3-carboxamide]
CC(=O)c1cn(CC(=O)N2[C@H](C(=O)Nc3nc(Br)ccc3C)C[C@@]3(C)C[C@@H]23)c2ccc(-c3cnc4cc(C)nn4c3)cc12 [Compound 202, (1R,3S,5R)-2-(2-(3-acetyl-5-(2-methylpyrazolo[1,5-a]pyrimidin-6-yl)-1H-indol-1-yl)acetyl)-N-(6-bromo-3-methylpyridin-2-yl)-5-methyl-2-azabicyclo[3.1.0]hexane-3-carboxamide]
CC(=O)c1nn(CC(=O)N2[C@H](C(=O)Nc3cncc(Br)n3)C[C@@]3(C)C[C@@H]23)c2c(C)cc(-c3ccc(CO)nc3)cc12 [Compound 119, (1R,3S,5R)-2-(2-(3-acetyl-5-(6-(hydroxymethyl)pyridin-3-yl)-7-methyl-1H-indazol-1-yl)acetyl)-N-(6-bromopyrazin-2-yl)-5-methyl-2-azabicyclo[3.1.0]hexane-3-carboxamide]
CC(=O)c1nn(CC(=O)N2[C@H](C(=O)Nc3nc(Br)ccc3C)C[C@@]3(C)C[C@@H]23)c2c(C)cc(-c3cnc(F)nc3)cc12 [Compound 59, (1R,3S,5R)-2-(2-(3-acetyl-5-(2-fluoropyrimidin-5-yl)-7-methyl-1H-indazol-1-yl)acetyl)-N-(6-bromo-3-methylpyridin-2-yl)-5-methyl-2-azabicyclo[3.1.0]hexane-3-carboxamide]
CC(=O)c1cn(CC(=O)N2[C@H](C(=O)Nc3nc(Br)c(F)cc3C)C[C@@]3(C)C[C@@H]23)c2c(C)cc(-c3cnc4cc(C)nn4c3)cc12 [Compound 209, (1R,3S,5R)-2-(2-(3-acetyl-7-methyl-5-(2-methylpyrazolo[1,5-a]pyrimidin-6-yl)-1H-indol-1-yl)acetyl)-N-(6-bromo-5-fluoro-3-methylpyridin-2-yl)-5-methyl-2-azabicyclo[3.1.0]hexane-3-carboxamide]
CC(=O)c1nn(CC(=O)N2[C@H](C(=O)Nc3cnc(C)c(Br)n3)C[C@@]3(C)C[C@@H]23)c2c(C)cc(-c3cnc(CO)nc3)cc12 [Compound 94, (1R,3S,5R)-2-(2-(3-acetyl-5-(2-(hydroxymethyl)pyrimidin-5-yl)-7-methyl-1H-indazol-1-yl)acetyl)-N-(6-bromo-5-methylpyrazin-2-yl)-5-methyl-2-azabicyclo[3.1.0]hexane-3-carboxamide]
C#CCC(Cc1ccccc1)NC(=O)[C@@H]1C[C@@]2(C)C[C@H]2N1C(=O)Cn1nc(C(C)=O)c2cc(-c3cnc(C)nc3)cc(C)c21 (stereo partly drawn) [Compound 175, (1R,3S,5R)-2-{2-[3-acetyl-7-methyl-5-(2-methylpyrimidin-5-yl)indazol-1-yl]acetyl}-5-methyl-N-(1-phenylpent-4-yn-2-yl)-2-azabicyclo[3.1.0]hexane-3-carboxamide]
CC(=O)c1cn(CC(=O)N2[C@H]3CC[C@H](C3)[C@H]2C(=O)Nc2nc(C(F)(F)F)ccc2C)c2c(C)cc(-c3cnc(C)nc3)cc12 [Compound 177, (1S,3S,4R)-2-(2-(3-acetyl-7-methyl-5-(2-methylpyrimidin-5-yl)-1H-indol-1-yl)acetyl)-N-(3-methyl-6-(trifluoromethyl)pyridin-2-yl)-2-azabicyclo[2.2.1]heptane-3-carboxamide]
